What was measured:
Assay type in all cases: functional, cell-based
[1] = system: BaF3; test: Antiproliferative activity against PIM1-dependent mouse BAF3 cells
[2] = Antiproliferative activity against human MM1S cells; conditions: MM1.S
[3] = system: BaF3; test: Antiproliferative activity against IL3-dependent mouse BAF3 cells

| IC50 [1] | IC50 [3] | Compound | EC50 [2] |
| --- | --- | --- | --- |
| 19.2 nM |  | Cn1ncc(NC(=O)c2nc(-c3c(F)cccc3F)sc2N)c1[C@]12CC[C@H](O1)[C@@H](N)CC2 |  |
| 96.8 nM | > 25 µM | C[C@H]1O[C@@H](c2c(NC(=O)c3csc(-c4c(F)cccc4F)n3)cnn2C)C[C@@H](N)[C@]1(C)O (single isomer, unassigned) | 6.9 µM |
| 37.2 nM | 12.2 µM | Cn1ncc(NC(=O)c2csc(-c3c(F)cc([C@H]4CCCO4)cc3F)n2)c1[C@@H]1CC[C@@H](N)[C@H](F)CO1 (single isomer, unassigned) | 1.7 µM |

Reference: ChEMBL document CHEMBL3351623, “Pim kinase inhibitors for the treatment of cancer and possibly more” (ACS Med Chem Lett, 2014)
